# Results reported in the supplement of paper PMC11061612.
# Legend:
# Assay in all cases: Bliss excess, mean over the matrix (fraction); higher = more synergy
# [1] = test system: DOV13 (Ovarian Carcinoma)
# Procedure, shortened: (§1)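 Cell lines in DMEM/F12 or RPMI with 10% FBS were plated in 1536-well plates, held 24 hours at 37°C, 5% CO2, then given two-drug dose matrices for 72 hours (DMSO typically 0.2%). Viability was read by CellTiter-Glo 2.0 luminescence and scaled as inhibition from 0 (vehicle wells) to 1 (blank wells). Combination Emax is the second-highest inhibition in the matrix; Bliss excess is observed combination effect minus expected EA + EB − EA·EB, EA and EB being single-agent effects.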
# [2] = test system: DB (B-Cell Non-Hodgkin's Lymphoma)
# Procedure, shortened: as §1
# [3] = test system: G-292-Clone-A141B1 (Osteosarcoma)
# Procedure, shortened: as §1
# [4] = test system: TE-5 (Esophageal Squamous Cell Carcinoma)
# Procedure, shortened: as §1
# [5] = test system: SW1088 (Low Grade Glioma)
# Procedure, shortened: as §1
# [6] = test system: SW1990 (Pancreatic Carcinoma)
# Procedure, shortened: as §1
# [7] = test system: MDA-MB-231 (Breast Carcinoma)
# Procedure, shortened: as §1
# NCI-H2369 (Mesothelioma) = test system: NCI-H2369 (Mesothelioma)
# Procedure, shortened: as §1
# [8] = test system: LU-99A (Non-Small Cell Lung Carcinoma)
# Procedure, shortened: as §1
# [9] = test system: NCI-H1694 (Small Cell Lung Carcinoma)
# Procedure, shortened: as §1
# SN12C (Kidney Carcinoma) = test system: SN12C (Kidney Carcinoma)
# Procedure, shortened: as §1
# NCI-H2595 (Mesothelioma) = test system: NCI-H2595 (Mesothelioma)
# Procedure, shortened: as §1
# [10] = test system: SNU-C5 (Colorectal Carcinoma)
# Procedure, shortened: as §1
# [11] = test system: HCC2157 (Breast Carcinoma)
# Procedure, shortened: as §1
# [12] = test system: NALM-6 (B-Lymphoblastic Leukemia)
# Procedure, shortened: as §1
# [13] = test system: COR-L23 (Non-Small Cell Lung Carcinoma)
# Procedure, shortened: as §1
# [14] = test system: IHH-4 (Thyroid Gland Carcinoma)
# Procedure, shortened: as §1
# [15] = test system: KM-H2 (Hodgkin's Lymphoma)
# Procedure, shortened: as §1
# [16] = test system: CTV-1 (T-Lymphoblastic Leukemia)
# Procedure, shortened: as §1
# [17] = test system: SW780 (Bladder Carcinoma)
# Procedure, shortened: as §1
SMILES,Bliss excess [1],Bliss excess [2],Bliss excess [3],Bliss excess [4],Bliss excess [5],Bliss excess [6],Bliss excess [7],Bliss excess (NCI-H2369 (Mesothelioma)),Bliss excess [8],Bliss excess [9],Bliss excess (SN12C (Kidney Carcinoma)),Bliss excess (NCI-H2595 (Mesothelioma)),Bliss excess [10],Bliss excess [11],Bliss excess [12],Bliss excess [13],Bliss excess [14],Bliss excess [15],Bliss excess [16],Bliss excess [17]
"Cc1c2c(nn1C)CSCc1cc(n(C)n1)CSc1cc(c3ccccc3c1)OCCCc1c(C(=O)O)n(C)c3c-2c(Cl)ccc13 [AZD5991] + C[C@@H]1COCCN1C2=NC(=NC(=C2)C3(CC3)[S@](=N)(=O)C)C4=C5C=CNC5=NC=C4 [AZD6738] (first compound max 1 µM, 7x7, partner max 10 µM)",0.0005,0.0042,-0.001,-0.0294,-0.0048,-0.0062,0.0132,0.0442,-0.0152,0.0064,-0.0144,-0.0124,-0.011,0.0155,-0.0114,-0.0121,0.0349,0.0236,0.0021,0.0324
"CC(=O)Nc1cccc(-n2c(=O)n(C3CC3)c(=O)c3c(Nc4ccc(I)cc4F)n(C)c(=O)c(C)c32)c1 [Trametinib] + Cc1nc(-c2cn3c(n2)-c2ccc(-c4cnn(C(C)(C)C(N)=O)c4)cc2OCC3)n(C(C)C)n1 [Taselisib] (first compound max 1 µM, 7x7, partner max 10 µM)",0.136,-0.004,0.0804,0.101,0.0579,0.148,0.142,0.046,0.116,0.0583,0.0395,0.0412,0.0951,0.0554,-0.0228,0.162,-0.0242,0.0338,0.328,0.129
"CN(CCO)CC[C@H](CSc1ccccc1)Nc1ccc(S(=O)(=O)NC(=O)c2ccc(N3CCC([C@@H](O)c4ccccc4-c4ccc(Cl)cc4)CC3)cc2)cc1S(=O)(=O)C(F)(F)F [AZD4320] + C1CN(CCC1(C(=O)N[C@@H](CCO)C2=CC=C(C=C2)Cl)N)C3=NC=NC4=C3C=CN4 [Capivasertib] (first compound max 1 µM, 7x7, partner max 3 µM)",0.0131,-0.0196,-0.0041,-0.0068,0.0242,-0.049,-0.0517,0.0332,-0.0693,0.0202,-0.0636,-0.0458,-0.067,0.0191,0.0091,-0.0254,-0.0253,-0.0205,-0.0365,-0.053
"Cn1cnc2c(F)c(Nc3ccc(Br)cc3Cl)c(C(=O)NOCCO)cc21 [Selumetinib] + CC(C)n1c(=O)n(C)c2cnc3cc(F)c(-c4ccc(OCCCN5CCCCC5)nc4)cc3c21 [AZD1390] (first compound max 10 µM, 7x7, partner max 0.3 µM)",-0.0576,-0.0488,-0.0567,-0.0317,-0.0368,-0.0434,0.0101,-0.0442,-0.0058,-0.0085,-0.0313,-0.0415,-0.0283,0.002,-0.0248,-0.0251,-0.0326,-0.027,0.0032,-0.0542
"CS(=O)(=O)CCNCc1ccc(-c2ccc3ncnc(Nc4ccc(OCc5cccc(F)c5)c(Cl)c4)c3c2)o1 [Lapatinib] + C[C@@H](Oc1cc(-c2cnn(C3CCNCC3)c2)cnc1N)c1c(Cl)ccc(F)c1Cl [Crizotinib] (first compound max 10 µM, 7x7, partner max 10 µM)",-0.0621,-0.148,-0.0506,-0.0054,-0.0612,-0.0042,-0.042,-0.0253,-0.0205,0.025,-0.017,-0.0198,-0.0301,-0.0482,-0.0612,-0.0296,-0.0634,0.0018,0.036,-0.0364
"CN(CCO)CC[C@H](CSc1ccccc1)Nc1ccc(S(=O)(=O)NC(=O)c2ccc(N3CCC([C@@H](O)c4ccccc4-c4ccc(Cl)cc4)CC3)cc2)cc1S(=O)(=O)C(F)(F)F [AZD4320] + Cc1cc2ncnn2cc1Nc1ncc2c(n1)n(C1CCOCC1)c(=O)n2C [AZD7648] (first compound max 1 µM, 7x7, partner max 10 µM)",-0.0588,-0.0149,-0.032,-0.033,-0.0184,-0.0418,-0.0082,-0.0411,-0.0522,0.0357,-0.0578,-0.0214,-0.0257,0.0378,-0.0061,-0.0348,-0.0451,-0.0231,0.001,-0.0578
"Cn1cnc2c(F)c(Nc3ccc(Br)cc3Cl)c(C(=O)NOCCO)cc21 [Selumetinib] + C=CCn1c(=O)c2cnc(Nc3ccc(N4CCN(C)CC4)cc3)nc2n1-c1cccc(C(C)(C)O)n1 [AZD1775] (first compound max 10 µM, partner max 1 µM)",-0.0631,-0.193,-0.0458,-0.0514,-0.0468,0.0134,-0.0337,-0.0624,-0.0624,-0.067,-0.0228,-0.0443,0.0241,0.0111,0.0755,0.0308,-0.0083,-0.0685,0.0039,-0.0555
"COc1cccc(OCCCN)c1-c1cc(Nc2cnc(C#N)cn2)n[nH]1 [Prexasertib] + C=CCn1c(=O)c2cnc(Nc3ccc(N4CCN(C)CC4)cc3)nc2n1-c1cccc(C(C)(C)O)n1 [AZD1775] (first compound max 1 µM, partner max 1 µM)",0.0963,0.071,0.028,-0.0245,-0.0156,-0.0061,0.124,-0.0074,0.0196,0.13,0.0613,0.0383,0.0153,0.0668,0.0507,0.047,0.136,0.077,0.0364,0.0349
"CC1(C)CCC(CN2CCN(c3ccc(C(=O)NS(=O)(=O)c4ccc(NCC5CCOCC5)c([N+](=O)[O-])c4)c(Oc4cnc5[nH]ccc5c4)c3)CC2)=C(c2ccc(Cl)cc2)C1 [Venetoclax] + Cn1cnc2c(F)c(Nc3ccc(Br)cc3Cl)c(C(=O)NOCCO)cc21 [Selumetinib] (first compound max 1 µM, 7x7, partner max 3 µM)",-0.0151,-0.0192,-0.0441,-0.0575,-0.0407,-0.0656,-0.0277,-0.0308,-0.0484,-0.0313,-0.0489,-0.047,-0.0248,-0.006,0.168,-0.0182,-0.0176,-0.0221,-0.0173,-0.0367
"Cc1c2c(nn1C)CSCc1cc(n(C)n1)CSc1cc(c3ccccc3c1)OCCCc1c(C(=O)O)n(C)c3c-2c(Cl)ccc13 [AZD5991] + CCN(CCO)CCCOc1ccc2c(Nc3cc(CC(=O)Nc4cccc(F)c4)[nH]n3)ncnc2c1 [AZD2811] (first compound max 1 µM, 7x7, partner max 1 µM)",0.0169,0.0711,-0.021,-0.0313,-0.0485,0.0159,0.0604,-0.0156,0.0252,0.0939,0.0191,0.0141,0.0247,-0.0241,-0.0839,0.0013,0.0306,0.0654,0.0556,0.0188
"COc1cccc2c1C(=O)c1c(O)c3c(c(O)c1C2=O)C[C@@](O)(C(=O)CO)C[C@@H]3O[C@H]1C[C@H](N)[C@H](O)[C@H](C)O1 [Doxorubicin] + Cc1cc2ncnn2cc1Nc1ncc2c(n1)n(C1CCOCC1)c(=O)n2C [AZD7648] (first compound max 1 µM, 7x7, partner max 10 µM)",0.0218,0.0888,-0.0023,-0.0229,0.0309,-0.0224,-0.0124,0.029,0.0269,0.12,0.0191,0.0084,0.0378,0.112,0.139,0.0351,0.109,0.116,0.119,0.0082
"CC1(C)CCC(CN2CCN(c3ccc(C(=O)NS(=O)(=O)c4ccc(NCC5CCOCC5)c([N+](=O)[O-])c4)c(Oc4cnc5[nH]ccc5c4)c3)CC2)=C(c2ccc(Cl)cc2)C1 [Venetoclax] + C1CN(CCC1(C(=O)N[C@@H](CCO)C2=CC=C(C=C2)Cl)N)C3=NC=NC4=C3C=CN4 [Capivasertib] (first compound max 1 µM, 7x7, partner max 3 µM)",-0.0028,0.0332,-0.0701,-0.0197,-0.0578,-0.064,-0.0443,-0.0422,-0.0702,-0.0418,-0.0557,-0.0465,-0.0069,-0.0055,0.0346,-0.0525,-0.0187,-0.0178,-0.0319,-0.0335
"Cc1c2c(nn1C)CSCc1cc(n(C)n1)CSc1cc(c3ccccc3c1)OCCCc1c(C(=O)O)n(C)c3c-2c(Cl)ccc13 [AZD5991] + CN(C)CCCOc1ccc(-c2ccc3ncc4c(c3c2)n(C2CCOCC2)c(=O)n4C)cn1 [AZD0156] (first compound max 1 µM, 7x7, partner max 1 µM)",-0.0235,-0.0093,-0.025,-0.0081,-0.0356,0.0159,-0.0133,0.0002,-0.0175,0.0033,-0.0161,-0.0082,0.0157,-0.012,0.0032,-0.0086,0.0541,-0.0139,0.0012,-0.0103
"CCN(CCO)CCCOc1ccc2c(Nc3cc(CC(=O)Nc4cccc(F)c4)[nH]n3)ncnc2c1 [AZD2811] + O=C(c1cc(Cc2n[nH]c(=O)c3ccccc23)ccc1F)N1CCN(C(=O)C2CC2)CC1 [Olaparib] (first compound max 1 µM, 7x7, partner max 10 µM)",-0.0824,-0.0544,0.0252,-0.0181,-0.0539,-0.0302,-0.0175,0.0055,-0.0181,0.0406,0.0151,0.0072,-0.0041,-0.0105,-0.0086,-0.016,0.0229,0.0789,0.0712,0.02
